Measured values published in ChEMBL document CHEMBL1123561, “Aryl diazo compounds and diazonium salts as potential irreversible probes of the gamma-aminobutyric acid receptor” (J Med Chem, 1987).
Blank lines part the entries; values can stand above or below the compound they belong to.

Experiments:
[1] = molecular target: GABA-A receptor; anion channel; assay: Inhibition of [3H]GABA binding to Gamma-aminobutyric acid (GABA-A) receptor of rat brain homogenates
[2] = Half-life period was determined at 20 degree Centigrade at UV lambdamax nm of 306 (24000); format: ADME
[3] = Half-life period was determined at 20 degree Celsius at UV lambdamax nm of 313 (22000); format: ADME
[4] = Half-life period was determined at 20 degree Celsius at UV lambdamax nm of 314 (24000); stable; format: ADME
[5] = molecular target: T1, GABA-A receptor; anion channel (Rattus norvegicus) (UniProt O09028+P15431+P18506+P18508+P19969+P20236+P23574+P23576+P28471+P28473+P30191+P62813+P63079+P63138+Q91ZM7+Q9ES14); assay: Inhibition of [3H]GABA binding to Gamma-aminobutyric acid (GABA-A) receptor isolated from rat brain homogenates at 5*10e-4 M
[6] = Half-life period was determined at 20 degree Celsius at UV lambdamax nm of 260 (9600), 350 (5000); Stable; format: ADME
[7] = Half-life period was determined at 20 degree Celsius at UV lambdamax nm of 390 (5900); Stable; format: ADME
[8] = molecular target: T1, GABA-A receptor; anion channel (Rattus norvegicus); assay: Inhibition of [3H]-GABA binding to Gamma-aminobutyric acid (GABA-A) receptor of rat brain homogenates at 10e-5 M
[9] = Half-life period was determined at 20 degree Centigrade at UV lambdamax nm of 328; Unstable; format: ADME
[10] = test system: GABA-A receptor; anion channel; assay: Inhibition of [3H]GABA binding to Gamma-aminobutyric acid (GABA-A) receptor of rat brain homogenates (unstable)
[11] = Half-life period was determined at 20 degree Celsius at UV lambdamax nm of 256 (16000), 349 (9000); format: ADME
[12] = Half-life period was determined at 20 degree Celsius at UV lambdamax nm of 257 (14000), 350 (7900)stable; format: ADME
[13] = molecular target: Gamma-aminobutyric acid receptor subunit gamma-1 (Rattus norvegicus) (UniProt P23574); assay: Inhibition of [3H]GABA binding to Gamma-aminobutyric acid (GABA-A) receptor of rat brain homogenates at 5*10e-4 M
[14] = Half-life period was determined at 20 degree Celsius at UV lambdamax nm of 304(7800); unstable; format: ADME
[15] = Half-life period was determined at 20 degree Celsius at UV lambdamax nm of 345 (23000); Stable; format: ADME
[16] = Half-life period was determined at 20 degree Celsius at UV lambdamax nm of 316 (22000); format: ADME
[17] = Half-life period was determined at 20 degree Celsius at UV lambdamax nm of 319 (22000); format: ADME
[18] = Half-life period was determined at 20 degree Celsius at UV lambdamax nm of 323 (23000); Stable; format: ADME
[19] = Half-life period was determined at 20 degree Centigrade at UV lambdamax nm of 299 (8000); format: ADME
[20] = Half-life period was determined at 20 degree Celsius at UV lambdamax nm of 310 (16600); format: ADME
[21] = Half-life period was determined at 20 degree Centigrade at UV lambdamax nm of 313 (12000); format: ADME
[22] = molecular target: Gamma-aminobutyric acid receptor subunit gamma-1 (Rattus norvegicus, UniProt P23574); assay: Inhibition of [3H]-GABA binding to Gamma-aminobutyric acid (GABA-A) receptor of rat brain homogenates (Unstable)
[23] = Half-life period was determined at 20 degree Celsius at UV lambdamax nm of 258 (8500); format: ADME
[24] = Half-life period was determined at 20 degree Celsius at UV lambdamax nm of 258 (9800); Stable; format: ADME
[25] = Half-life period was determined at 20 degree Celsius at UV lambdamax nm of 348 (44000); Stable; format: ADME
[26] = Half-life period was determined at 20 degree Celsius at UV lambdamax nm of 313 (23000); Stable; format: ADME
[27] = Half-life period was determined at 20 degree Celsius at UV lambdamax nm of 255 (14000), 339 (7500); format: ADME
[28] = Half-life period was determined at 20 degree Celsius at UV lambdamax nm of 254 (15000), 341 (7800); format: ADME
[29] = Half-life period was determined at 20 degree Celsius at UV lambdamax nm of 321 (6500); format: ADME
[30] = Half-life period was determined at 20 degree Celsius at UV lambdamax nm of 328 (12000); format: ADME
[31] = Half-life period was determined at 20 degree Centigrade at UV lambdamax nm of 328 (9000); format: ADME
[32] = Half-life period was determined at 20 degree Celsius at UV lambdamax nm of 266 (16000); Stable; format: ADME
[33] = Half-life period was determined at 20 degree Celsius at UV lambdamax nm of 268 (16000); format: ADME
[34] = Half-life period was determined at 20 degree Celsius at UV lambdamax nm of 306 (24000); Stable; format: ADME
[35] = Half-life period was determined at 20 degree Celsius at UV lambdamax nm of 346 (44000); Stable; format: ADME

Sequence of Gamma-aminobutyric acid receptor subunit gamma-1 (Rattus norvegicus) (P23574 whole entry): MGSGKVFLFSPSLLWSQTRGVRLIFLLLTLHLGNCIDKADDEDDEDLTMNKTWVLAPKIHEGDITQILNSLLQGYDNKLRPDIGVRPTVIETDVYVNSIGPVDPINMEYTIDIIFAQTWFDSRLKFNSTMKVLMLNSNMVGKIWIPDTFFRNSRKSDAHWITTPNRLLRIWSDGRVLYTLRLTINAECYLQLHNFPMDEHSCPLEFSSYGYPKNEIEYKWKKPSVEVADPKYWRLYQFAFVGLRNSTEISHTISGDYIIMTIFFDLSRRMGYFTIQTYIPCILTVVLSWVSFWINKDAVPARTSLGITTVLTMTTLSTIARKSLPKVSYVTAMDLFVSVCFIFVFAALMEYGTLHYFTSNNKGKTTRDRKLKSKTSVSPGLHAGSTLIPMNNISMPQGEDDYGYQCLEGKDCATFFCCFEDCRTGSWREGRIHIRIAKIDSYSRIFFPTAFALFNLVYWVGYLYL
Sequence of Gamma-aminobutyric acid receptor subunit gamma-1 (P23574 whole entry): as above

Compound: N#[N+]c1cccc(S(=O)(=O)[O-])c1
- IC50 [1]: 5 µM

Compound: N#[N+]C1N=CC[N-]1 (stereo not given)
- half-life [2]: 48 h
- half-life [3]: 8 h
- T1/2 [4]: Stable
- IC50 [1]: 500 µM

- inhibition [5]: < 50%
Compound: Nc1nc(CC(N)C(=O)O)c[nH]1 (stereo not given)

Compound: [N-]=[N+]=C1C=C(S(=O)(=O)O)C=CC1=O
- T1/2 [6]: Stable
- T1/2 [7]: Stable
- inhibition [5]: 15%

- inhibition [8]: 30%
Compound: Nc1nc(CC(=O)O)c[nH]1

Compound: N#[N+]c1ncc(CC(=O)[O-])s1
- T1/2 [9]: Unstable
- IC50 [10]: Unstable

- half-life [11]: 0.75 h
- T1/2 [12]: Stable
- IC50 [1]: < 10 µM
Compound: N#[N+]c1ccc2cccc(S(=O)(=O)[O-])c2c1

- inhibition [13]: < 50%
Compound: Nc1ncc(CC(=O)O)s1

- inhibition [5]: 0%
Compound: Nc1ncc[nH]1

- inhibition [8]: 25%
Compound: Nc1nc(CC(=O)O)cs1

Compound: N#[N+]c1cc[n+]([O-])cc1
- T1/2 [14]: Unstable
- T1/2 [15]: Stable
- IC50 [10]: Unstable

Compound: N#[N+]c1nc(CC(=O)[O-])c[nH]1
- half-life [16]: 60 h
- half-life [17]: 11 h
- T1/2 [18]: Stable
- IC50 [1]: 70 µM

Compound: N#[N+]c1nccn1CC(=O)[O-]
- half-life [19]: 3 h
- half-life [20]: 12 h
- half-life [21]: 0.367 h
- IC50 [22]: Unstable

- inhibition [5]: 20%
Compound: NCc1ccc[n+]([O-])c1

Compound: N#[N+]c1cccc(C(=O)[O-])c1
- half-life [23]: 1.33 h
- T1/2 [24]: Stable
- inhibition [5]: 30%

Compound: [N-]=[N+]=C1C=CC(=O)C=C1
- T1/2 [25]: Stable
- inhibition [5]: 15%
- T1/2 [26]: Stable

- half-life [27]: 16 h
- IC50 [1]: 10 µM
- half-life [28]: 22 h
Compound: N#[N+]c1cccc2cccc(S(=O)(=O)[O-])c12

Compound: N#[N+]c1nc(CC(=O)[O-])cs1
- half-life [29]: 43 h
- half-life [30]: 48 h
- half-life [31]: 0.417 h
- IC50 [10]: Unstable

- inhibition [5]: 20%
Compound: Nc1nccn1CC(=O)O

Compound: N#[N+]c1ccc(S(=O)(=O)[O-])cc1
- T1/2 [32]: Stable
- half-life [33]: 6 h
- inhibition [13]: < 50%

Compound: [N-]=[N+]=C1C=CC(=O)C(S(=O)(=O)O)=C1
- T1/2 [34]: Stable
- T1/2 [35]: Stable
- inhibition [5]: 15%
